Measurements from PMC11778240, “Synthesis and preclinical evaluation of tigilanol tiglate analogs as latency-reversing agents for the eradication of HIV” (Science Advances, 2025).
Read-outs that look alike come from different tables or passages of the source.

Legend:
[1] = target: T1, PKC-δ (Homo sapiens, UniProt Q05655); test: Cell-free PKC competition binding assay against 3H-PDBu; conditions: for logKi (best-fit value), PKC-δ: log of Ki in nM
T1 construct: purchased Invitrogen (Sinobiological for the SUW402 experiment)
Description: (§1) With a diverse library of compounds bearing unique functionalities on the A-, B-, and C-rings (Fig. 6), we began to explore how these modifications affect PKC binding (Fig. 7A), NF-κB activation (Fig. 7B), cell permeation and PKC translocation (Fig. 7, C and D), and latency reversal in J-Lat cells (Fig. 8). […] We conducted this assay with phosphatidyl serine vesicles in solution that mimic the cellular membrane and play a critical role in the binding of small molecules to the PKC C1 domain (Fig. 7A) ([64]).
(§2) Cell-free PKC Binding Assay
The protein kinase C (PKC) affinity of EBC-46 and EBC-46 analogs was determined via competition with 3H-phorbol-12,13-dibutyrate (3H-PDBu) as described below. This procedure entails a glass-fiber filtration method to determine bound radioligand. The method of determining the radioligand Kd is also described.
(§3) Tris HCl (Fisher, ≥ 99%, stored at room temperature)
(§4) Phosphatidylserine (Avanti Polar Lipids, porcine, 25 mg/mL CHCl3 solution, stored at - […]
(§5) Bovine serum albumin (Sigma -Aldrich, ≥ 98%, globulin free, protease free, stored at 4 […]
Human PKC-β-I-GST fusion protein (Invitrogen, aliquoted and stored at -78 °C) Human PKC-δ-GST fusion protein (Invitrogen, aliquoted and stored at -78 °C) Glass-fiber filters (Whatman GF/B)
Preparation of 3H -PDBu solution : […]
(§6) a final concentration of 500 nM.
(§7) Preparation of phosphatidylserine (PS) vesicles :
(§8) For every 96 samples, 3.5 mg phosphatidylserine (140 μL) (25 mg/mL CHCl3 solution) was concentrated by removing chloroform under reduced pressure. The phosphatidylserine residue was resuspended in freshly prepared PKC binding assay buffer (3.5 mL), capped, and then thoroughly mixed by alternating between sonicating and vortexing, in 10 second intervals for 1 minute or until a cloudy white mixture (Branson Sonifier 250, power = 2, 50% duty cycle). The resulting cloudy white mixture (1 mg/mL) was stored on ic e until use.
(§9) Preparation of the "master mix" Solution :
(§10) Constituent Stock concentration (final concentration/amount in “master mix”):
(§11) PS vesicles (0.103 mg/mL)
(§12) Deionized H2O - Final vol of 30 mL
(§13) Preparation of PKC binding assay buffer:
(§14) For every 96 samples, to a 50 mL polypropylene tube was added Tris -HCl (pH 7.4, 1 M, 1.5 mL), KCl (1 M, 3 mL), CaCl2 (0.1 M, 35 μL – conventional isoforms only), and bovine serum albumin (60 mg). This mixture was diluted to 30 mL with deionized H2O and mixed gently. The buffer was […]
(§15) Preparation of PKC isoform solution:
(§16) For every 96 samples, PKC isoform solution was prepared by dissolving a 4 μg aliquot of the indicated recombinant human PKC isoform into 26.5 mL of PKC binding assay buffer. The diluted PKC was stored on ice for immediate use.
(§17) Preparation of PKC “master mix” solution:
(§18) To the PKC-isoform solution was added 1 mg/mL PS vesicles solution (3.30 mL), and 500 nM […]
(§19) The resulting “master mix” solution was vortexed and stored on […]
(§20) Preparation of analog compound dilutions:
(§21) Compound dilutions were prepared with filtered DMSO by serially diluting from a chosen "high" concentration. For the saturation binding experiment (radioligand Kd determination), the maximum radioligand concentration used was 4.0 nM with 2-fold dilutions between data points […]
isoforms ranges from 0.3 – 0.8 nM. […]
(§22) the middle of the binding curve.
(§23) For the competition binding experiment (analog Ki determination), 7 or 14 concentrations were used to define the inhibition curve, and compounds dilutions changed by factors of 2 or √2 between data points. The concentrations were chosen such that the in-assay concentration for the data points in the middle of the binding curve were approximately equal to the IC50 of the compound (if the IC50 is unknown, an exploratory binding assay is recommended prior to Ki determination). For assays with one compound per sheet, the √2-fold dilutions were prepared for the concentrations in the middle of the curve (e.g., for SUW400, the analog dilutions used were 15000 nM, 7500 nM, […]
PKC binding assay protocol (Saturation -binding experiment and Competition -binding experiment) […]

[2] = target: T2, PKC-β-I (Homo sapiens, UniProt P05771); test: as above; conditions: for PKC binding affinity and selectivity in words: PKC-β and PKC-δ; for logKi (best-fit value), PKC-β-I: log of Ki in nM
T2 construct: purchased Invitrogen
Description: as §1, §2
The protein kinase C (PKC) affinity of EBC-46 and EBC-46 analogs was determined via […]
entails a glass-fiber filtration method to determine bound radioligand. The method of determining the radioligand Kd is also described.
as §3, §4, §5
Human PKC-β-I-GST fusion protein (Invitrogen, aliquoted and stored at -78 °C) Human PKC-δ-GST fusion protein (Invitrogen, aliquoted and stored at -78 °C) Glass-fiber filters (Whatman GF/B) […]
as §6, §7, §8, §9, §10, §11, §12, §13, §14, §15, §16, §17, §18, §19, §20, §21, §22
as §23, with “in” for “in the middle of the curve (e.g., for SUW400, the analog dilutions used were 15000 nM, 7500 nM,”
PKC binding assay protocol (Saturation -binding experiment and Competition -binding experiment)
1) Glass-fiber filters were prepared by soaking them in a solution of aqueous polyethyleneimine

[3] = HotNM 2.5, HotKdNM 0.62, supplement fit, read-out: Ki (best-fit value), PKC-δ
[4] = competition against radiolabeled PDBu, Fig. 7A and text, read-out: Ki PKC-δ
[5] = HotNM 2.5, HotKdNM 0.37, supplement fit, read-out: Ki (best-fit value), PKC-β-I
[6] = competition against radiolabeled PDBu, Fig. 7A and text, read-out: Ki PKC-β

T2 sequence (P05771 whole entry): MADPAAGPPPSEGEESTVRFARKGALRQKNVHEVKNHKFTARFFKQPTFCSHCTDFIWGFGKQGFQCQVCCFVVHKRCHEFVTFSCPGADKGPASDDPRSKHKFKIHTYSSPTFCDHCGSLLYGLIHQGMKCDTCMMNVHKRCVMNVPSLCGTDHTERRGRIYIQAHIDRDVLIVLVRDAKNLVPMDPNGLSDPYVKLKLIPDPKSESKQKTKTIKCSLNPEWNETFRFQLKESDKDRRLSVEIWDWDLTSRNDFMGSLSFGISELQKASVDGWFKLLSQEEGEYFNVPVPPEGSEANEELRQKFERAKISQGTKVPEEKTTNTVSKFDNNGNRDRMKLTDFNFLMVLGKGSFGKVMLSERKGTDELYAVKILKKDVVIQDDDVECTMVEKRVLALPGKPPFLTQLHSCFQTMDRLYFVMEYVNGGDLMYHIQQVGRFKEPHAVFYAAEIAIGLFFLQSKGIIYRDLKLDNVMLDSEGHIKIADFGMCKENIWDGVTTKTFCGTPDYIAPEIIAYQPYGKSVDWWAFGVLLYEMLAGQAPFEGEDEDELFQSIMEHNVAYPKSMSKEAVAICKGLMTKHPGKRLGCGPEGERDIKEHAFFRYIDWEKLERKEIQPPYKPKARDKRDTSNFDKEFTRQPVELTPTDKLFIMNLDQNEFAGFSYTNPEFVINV
T1 sequence (Q05655 whole entry): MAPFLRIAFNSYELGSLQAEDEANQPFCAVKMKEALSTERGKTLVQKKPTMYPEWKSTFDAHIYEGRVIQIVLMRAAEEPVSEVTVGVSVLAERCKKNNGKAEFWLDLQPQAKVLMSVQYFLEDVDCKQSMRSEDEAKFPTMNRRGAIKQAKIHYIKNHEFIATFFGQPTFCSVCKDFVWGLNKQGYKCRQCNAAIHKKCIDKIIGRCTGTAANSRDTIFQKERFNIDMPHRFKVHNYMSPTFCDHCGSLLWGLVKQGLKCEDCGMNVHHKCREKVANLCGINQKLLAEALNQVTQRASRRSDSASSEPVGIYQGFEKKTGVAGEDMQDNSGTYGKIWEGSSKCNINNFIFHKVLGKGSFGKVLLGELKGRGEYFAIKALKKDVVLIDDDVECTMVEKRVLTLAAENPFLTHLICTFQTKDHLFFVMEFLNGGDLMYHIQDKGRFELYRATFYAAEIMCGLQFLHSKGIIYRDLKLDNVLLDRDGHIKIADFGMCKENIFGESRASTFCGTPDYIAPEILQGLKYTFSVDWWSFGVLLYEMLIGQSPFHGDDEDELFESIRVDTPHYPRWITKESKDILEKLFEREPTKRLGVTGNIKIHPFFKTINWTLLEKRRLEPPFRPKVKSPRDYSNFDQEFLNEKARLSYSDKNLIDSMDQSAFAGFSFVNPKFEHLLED

| Structure (SMILES) | weaker binding affinity for PKC-δ than EBC-46 [1] | Ki [1, 3] | Ki [1, 4] | logKi (best-fit value), PKC-δ ([1]; HotNM 2.5, HotKdNM 0.62) | selectivity for PKC-β over PKC-δ [2] | PKC-β selectivity ([2]; Fig. 7A, PKC-β over PKC-δ) | Ki [2, 5] | PKC binding affinity and selectivity in words [2] | Ki [2, 6] | logKi (best-fit value), PKC-β-I ([2]; HotNM 2.5, HotKdNM 0.37) | stronger binding for PKC-δ compared to EBC-46 [1] | greater affinity to PKC-δ than that reported for SUW013 ([1]; comparison with literature value) | Ki ([1]; read-out: binding for PKC-δ (Ki)) | stronger binding for PKC-β compared to EBC-46 [2] | Ki ([2]; read-out: binding for PKC-β (Ki)) |
| --- | --- | --- | --- | --- | --- | --- | --- | --- | --- | --- | --- | --- | --- | --- | --- |
| C/C=C(\C)C(=O)O[C@@H]1[C@@H](C)[C@@]2(O)[C@H]([C@@H]3C(C)(C)[C@]13OC(=O)c1ccccc1)[C@@H]1O[C@]1(CO)[C@@H](O)[C@]1(O)C(=O)C(C)=C[C@H]12 [SUW428] | ~ 20 × | 64.2 nM | 64 nM | 1.808 | > 12 fold | 12.5 | 5.12 nM | approximately three times lower affinity for PKC-β compared to EBC-46 | 5.1 nM | 0.7091 |  |  |  |  |  |
| CC[C@H](C)C(=O)O[C@@]12[C@H](OC(C)(C)C)[C@@H](C)[C@@]3(O)[C@H]([C@@H]1C2(C)C)[C@@H]1O[C@]1(CO)[C@@H](O)[C@]1(O)C(=O)C(C)=C[C@H]13 [SUW430] | ~ 20 × | 59.7 nM | 60 nM | 1.776 | 40 fold |  | 1.47 nM |  | 1.5 nM | 0.1684 |  |  |  |  |  |
| C/C=C(\C)C(=O)O[C@@H]1[C@@H](C)[C@@]2(O)[C@H]([C@@H]3C(C)(C)[C@]13OC(=O)Cc1cccc3ccccc13)[C@@H]1O[C@]1(CO)[C@@H](O)[C@]1(O)C(=O)C(C)=C[C@H]12 [SUW431] |  | 0.114 nM |  | -0.9424 | 1.4 fold |  | 0.079 nM | remarkable affinities in the picomolar range |  | -1.102 | 30 fold | approximately 10 fold | 0.11 nM | ~ 20 fold | 0.079 nM |
